Where two headings read alike, the source gives them in different places.
Key:
Experiment in all cases: Determination of MIC values (BHI broth, 96 well microtiter plate)
Type in all cases: cell-based
[1] = system: methicillin-resistant Staphylococcus aureus (MRSA); settings: Staphylococcus aureus, MRSA, BHI broth, read-out: MIC MRSA
In short: (§1)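 Organisms are grown in BHI at 37° C (about 7% CO2) to a 0.5 McFarland standard, then inoculated at 10^5 to 10^6 cells/mL into BHI holding twofold compound dilutions (final 25 down to 0.39 µg/mL, DMSO-diluted). After overnight incubation, MIC is the lowest concentration lacking growth.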

[2] = system: Streptococcus pneumoniae; settings: Streptococcus pneumoniae, BHI broth, read-out: MIC S. pneu
In short: as §1

[3] = system: vancomycin-resistant Enterococcus spp. (VRE); settings: Enterococcus, VRE, BHI broth, read-out: MIC VREF
In short: as §1

[4] = 16 h, 37° C., overnight (about 16 hours)
[5] = 37° C., overnight (about 16 hours)

MIC ([1]; overnight 37° C.)	MIC ([2]; S. pneu, overnight 37° C.)	MIC ([3]; VREF, overnight 37° C.)	SMILES	further results
< 7 µg/mL	< 7 µg/mL	< 7 µg/mL	Cn1cc(-c2cc(C(=O)NCc3cccc(CN)c3)c3cc(I)ccc3n2)c2cc(Cl)ccc21 [Example 225]	
< 7 µg/mL	> 25 µg/mL	< 25 µg/mL	NCc1ccc(CNC(=O)c2cc(-c3c[nH]c4ccc(Br)cc34)nc3ccc(C#CCN4CCc5ccccc5C4)cc23)cc1 [Example 240]	
			Cc1cc2nc(-c3c[nH]c4ccc(Br)cc34)cc(C(=O)NCC3CCC(CN)CC3)c2cc1C (stereo not drawn) [Example 128]	MIC [1, 4]: < 7 µg/mL; MIC [2, 5]: < 7 µg/mL; MIC [3, 4]: < 7 µg/mL
< 7 µg/mL	< 7 µg/mL	< 7 µg/mL	NCc1cccc(CNC(=O)c2cc(-c3c[nH]c4ccc(Br)cc34)nc3c(F)cccc23)c1 [Example 257]	
> 25 µg/mL	< 7 µg/mL	> 25 µg/mL	Cn1cc(-c2cc(C(=O)NCc3ccc(CN)cc3)c3ccc(I)cc3n2)c2cc(Br)ccc21 [Example 328]	
			NCc1ccc(CNC(=O)c2cc(-c3c[nH]c4ccc(Br)cc34)nc3cc(Br)ccc23)cc1 [Example 138]	MIC [1, 4]: < 7 µg/mL; MIC [2, 5]: < 7 µg/mL; MIC [3, 4]: < 7 µg/mL
			Cc1cc2nc(-c3c[nH]c4ccc(Br)cc34)cc(C(=O)NCC3CCCC(CN)C3)c2cc1C (stereo not drawn) [Example 127]	MIC [1, 4]: < 7 µg/mL; MIC [2, 5]: < 7 µg/mL; MIC [3, 4]: < 7 µg/mL
< 7 µg/mL	< 25 µg/mL	< 7 µg/mL	NCc1ccc(CNC(=O)c2cc(-c3c[nH]c4ccc(Br)cc34)nc3c(Cl)c(Cl)ccc23)cc1 [Example 275]	
> 25 µg/mL	> 25 µg/mL	> 25 µg/mL	CCB(OC)C(=O)c1cc(-c2c[nH]c3ccc(Br)cc23)nc2cc(Br)ccc12 [Example 375]	
< 7 µg/mL	< 7 µg/mL	> 25 µg/mL	Clc1ccc2nc(-c3c[nH]c4cc(Cl)ccc34)ccc2c1 [Example 202]	
< 7 µg/mL	< 7 µg/mL	< 7 µg/mL	NCCNC(=O)c1cc(-c2c[nH]c3ccc(Cl)cc23)nc2c(Br)cccc12 [Example 322]	
< 7 µg/mL	< 7 µg/mL	< 7 µg/mL	Cn1cc(-c2cc(C(=O)NC3CCC(N)CC3)c3cc(I)ccc3n2)c2cc(Br)ccc21 (stereo not drawn) [Example 360]	
			Cc1cccc2ccc(-c3c[nH]c4ccc(Br)cc34)nc12 [Example 422]	MIC ([1]; 16 h, 37° C., about 16 hours): > 25 µg/mL; MIC ([2]; 37° C., about 16 hours): > 25 µg/mL; MIC ([3]; 16 h, 37° C., about 16 hours): > 25 µg/mL
			OCc1[nH]c2ccccc2c1-c1cc(Cl)c2ccccc2n1 [Example 459]	MIC ([1]; 16 h, 37° C., about 16 hours): > 25 µg/mL; MIC ([2]; 37° C., about 16 hours): > 25 µg/mL; MIC ([3]; 16 h, 37° C., about 16 hours): > 25 µg/mL
			Cn1cc(-c2cc(C(=O)NCCN)c3cc(C#CCN4CCCC4)ccc3n2)c2cc(Br)ccc21 [Example 403]	MIC ([1]; 16 h, 37° C., about 16 hours): < 7 µg/mL; MIC ([2]; 37° C., about 16 hours): < 7 µg/mL; MIC ([3]; 16 h, 37° C., about 16 hours): < 7 µg/mL
< 7 µg/mL	< 7 µg/mL	< 7 µg/mL	NCc1ccc(CNC(=O)c2cc(-c3c[nH]c4ccc(Br)cc34)nc3ccc(C#CCNC4CCCCC4)cc23)cc1 [Example 236]	
			O=C(Nc1ccc(O)cc1)c1cc(-c2c[nH]c3ccc(Br)cc23)nc2ccc(I)cc12 [Example 175]	MIC [1, 4]: < 7 µg/mL; MIC [2, 5]: < 7 µg/mL; MIC [3, 4]: < 25 µg/mL
> 25 µg/mL	> 25 µg/mL	> 25 µg/mL	Clc1ccc2nc(-c3c[nH]c4c(Br)cccc34)ccc2c1 [Example 355]	
< 7 µg/mL	< 7 µg/mL	< 7 µg/mL	Cn1cc(-c2cc(C(=O)NCC3CCCC(CN)C3)c3cc(I)ccc3n2)c2cc(Br)ccc21 (stereo not drawn) [Example 358]	
			NCc1cccc(CNC(=O)c2cc(-c3c[nH]c4cc(F)ccc34)nc3cc(F)ccc23)c1 [Example 494]	MIC ([1]; 16 h, 37° C., about 16 hours): < 7 µg/mL; MIC ([2]; 37° C., about 16 hours): < 7 µg/mL; MIC ([3]; 16 h, 37° C., about 16 hours): < 7 µg/mL
			Cc1[nH]c2ccc(Cl)cc2c1-c1ccc2cccc(C)c2n1 [Example 425]	MIC ([1]; 16 h, 37° C., about 16 hours): < 7 µg/mL; MIC ([2]; 37° C., about 16 hours): < 7 µg/mL; MIC ([3]; 16 h, 37° C., about 16 hours): < 7 µg/mL
			CNCCN(C)C(=O)c1cc(-c2c[nH]c3ccc(Br)cc23)nc2ccc(Cl)cc12 [Example 500]	MIC ([1]; 16 h, 37° C., about 16 hours): < 7 µg/mL; MIC ([2]; 37° C., about 16 hours): < 7 µg/mL; MIC ([3]; 16 h, 37° C., about 16 hours): < 7 µg/mL
> 25 µg/mL	> 25 µg/mL	> 25 µg/mL	COC(=O)c1cc(-c2cn(C)c3ccc(Br)cc23)nc2cc(F)ccc12 [Example 309]	
			Cc1cccc2ccc(-c3c[nH]c4ccc(C#N)cc34)nc12 [Example 409]	MIC ([1]; 16 h, 37° C., about 16 hours): > 25 µg/mL; MIC ([2]; 37° C., about 16 hours): > 25 µg/mL; MIC ([3]; 16 h, 37° C., about 16 hours): > 25 µg/mL
			NC1CCC(NC(=O)c2cc(-c3c[nH]c4ccc(Br)cc34)nc3ccc(I)cc23)CC1 (stereo not drawn) [Example 113]	MIC [1, 4]: < 7 µg/mL; MIC [2, 5]: < 7 µg/mL; MIC [3, 4]: < 7 µg/mL
